# Results taken from patent US4879288A, “Novel dibenzothiazepine antipsychotic” (ICI Americas Inc., priority 1986, dated 1989).
# Structures can show the parent of a compound that is named as a salt. Where two headings read alike, the source gives them in different places.
# Assays:
# sensitized cebus monkeys [1] = details: background statement; cited from earlier work
# sensitized cebus monkeys [2] = details: for Number of Monkeys with Dyskinetic Reactions/Number Tested: observed eight hours; for duration of reactions / intensity of reactions: typical reactions
# Description: The compound of Formula II, clozapine, thioridazine or haloperidol were each orally administered to sensitized cebus monkeys. They were then observed in their home cages continuously for eight hours and occurrences of dyskinetic reactions noted.
# schizophrenic patients = details: background statement; cited from earlier work
# [3] = test system: amphetamine-induced hyperactivity; details: for Activity Score (0-2 Hr) (Mean Number of Crossings of Center Line of Alley): vehicle 148
# Procedure: A number of tests are recognized as showing antidopaminergic activity of a compound and/or as being predictive of antipsychotic activity in mammals. For these tests a compound of formula II in the form of a salt (for example, as described in Example 2) was used. All dosages in the tables are expressed as free base. This test has been described by Swerdlow and Koob [Pharmacol. Biochem. and Behav., 23: 303 (1985)]. Rats that are administered amphetamine at a moderate dose become hyperactivity. The hyperactivity can last for several hours, and can be measured in various ways, for example, by counting the number of times the rat walks from one end of a long alley to the other end. […] The hyperactivity of […]-treated rats can be antagonized (prevented) by pretreatment with dopamine-blocking agents. […] The compound of the present invention as the HCl salt or the vehicle (vehicle is defined in Example 5) were administered orally to 20 rats and […] injected intraperitoneally. Activity (walking back and forth in a long alley) was recorded for two hours.
# [4] = test system: rat striatal homovanillic acid (HVA); details: rat striatum, HPLC
# Description: (§1) A number of tests are recognized as showing antidopaminergic activity of a compound and/or as being predictive of antipsychotic activity in mammals. For these tests a compound of formula II in the form of a salt (for example, as described in Example 2) was used. All dosages in the tables are expressed as free base.
# (§2) Among the various pharmacological effects of antipsychotics, their action as dopamine antagonists in the brain has been extensively investigated. Enhancement of dopamine metabolism (dihydroxyphenylacetic acid and homovanillic acid (DOPAC and HVA)) by antipsychotic agents has been attributed to a blockade of dopamine receptors [A. Carlson and M. Lindquist, Acta. Pharmac. Tox., (1963) 20: 140]. The effects of a compound of the invention on DOPAC and HVA levels in the rat striatum were measured by HPLC using electrochemcial detection according to the method of Saller and Salama [J. Chromatography, (1984) 309: 287].
# [5] = test system: rat striatal dihydroxyphenylacetic acid (DOPAC); details: rat striatum, HPLC
# Description: as §1, §2
# [6] = test system: apomorphine-induced climbing; details: for Mean Climb Score: 13-14 min after apomorphine HCl 1.25 mg/kg s.c., vehicle 24
# Procedure: as §1
# This test has been described by Ther and Schramm [Arch int. Pharmacodyn., 138: 302 (1962); Peuch, Simon and Boissier, Eur. J. Pharm., 50: 291 (1978)]. Mice that are administered an appropriate dose of apomorphine (a dopamine agonist) will climb the walls of a cage or other suitable structure and remain at or near the top for 20-30 minutes. Untreated mice on the other hand will occasionally climb up and then climb down. […] The antagonism of apomorphine-induced climbing in mice is therefore an indication of the potential dopamine blocking activity of the agent. Since dopamine blocking agents are typically antipsychotic agents, the test is considered to be evidence for potential antipsychotic activity of the agent. The vehicle itself [hydroxypropylmethylcellulose (HPMC) 0.5% w/v, polyoxyethylene (20) sorbitan monooleate (Tween 80) .1% w/v, and distilled water] or the vehicle with the test compound of the present invention was administered orally to twenty mice in graded doses. After 30 minutes, apomorphine HCl was administered subcutaneously at 1.25 mg/kg and the mice were placed in cages containing 28 horizontal rungs, upon which the mice could climb. Thirteen minutes later they were scored for climbing. The climbing score was the mean of the highest and lowest rungs on which the mouse climbed during a one-minute time period from 13 ° 14 minutes after apomorphine.
# squirrel monkeys = details: for Number of Monkeys Scoring 75% (Or Less) Avoidance Responses/Number Tested: vehicle 0/20
# Description: as §1
# The conditioned avoidance test has been described by Herz, A., Int. Rev. Neurobiol., (1960) 2: 229-277. In this test, a warning stimulus is presented for five seconds. The monkeys are trained to press a lever to turn off the warning stimulus thereby avoiding the delivery of electric shocks at 1/sec for 10 seconds that would begin at the end of the warning stimulus. If there is no response during the warning stimulus (no avoidance response) and the shocks begin, a response during the shocks stops the shocks. Trials of this type are repeated every minute for six hours. […] A compound of the present invention Formula II (HCl salt) was administered orally and the conditioned avoidance test was administered. The vehicle used was that defined in Example 5.
# [7] = at therapeutic doses
# [8] = 20 mg/kg p.o., one of two reacting monkeys
smiles,measurement,setting,value
"CN1CCN(C2=Nc3cc(Cl)ccc3Nc3ccccc32)CC1 [Clozapine, reference compound]",dyskinetic reaction in sensitized cebus monkeys,sensitized cebus monkeys [1],does not produce a dyskinetic reaction
same,Number of Monkeys with Dyskinetic Reactions/Number Tested,sensitized cebus monkeys [2]; 10 mg/kg p.o.,0/1
same,Number of Monkeys with Dyskinetic Reactions/Number Tested,sensitized cebus monkeys [2]; 20 mg/kg p.o.,0/13
same,Number of Monkeys with Dyskinetic Reactions/Number Tested,sensitized cebus monkeys [2]; 40 mg/kg p.o.,0/11
same,Number of Monkeys with Dyskinetic Reactions/Number Tested,sensitized cebus monkeys [2]; 60 mg/kg p.o.,0/5
same,tardive dyskinesia reported,schizophrenic patients,no tardive dyskinesia reported
"OCCOCCN1CCN(C2=Nc3ccccc3Sc3ccccc32)CC1 [Formula II (HCl salt), 11-[4-[2-(2-Hydroxyethoxy)ethyl]-1-piperaziny]dibenzo [b,f][1,4]thiazepine, hydrochloride salt]",Activity Score (0-2 Hr) (Mean Number of Crossings of Center Line of Alley),"[3]; 10 mg/kg p.o., p < .05",118.3 Crossings
same,Activity Score (0-2 Hr) (Mean Number of Crossings of Center Line of Alley),"[3]; 20 mg/kg p.o., p < .0005",92.4 Crossings
same,Activity Score (0-2 Hr) (Mean Number of Crossings of Center Line of Alley),"[3]; 40 mg/kg p.o., p < .0005",64.3 Crossings
same,Activity Score (0-2 Hr) (Mean Number of Crossings of Center Line of Alley),"[3]; 80 mg/kg p.o., p < .0005",39.8 Crossings
same,antagonism of amphetamine-induced hyperactivity,[3]; result in words,antagonized the hyperactivity
same,% Control HVA,[4]; 10 mg/kg i.p.,140 % Control
same,% Control HVA,[4]; 20 mg/kg i.p.,210 % Control
same,% Control HVA,[4]; 40 mg/kg i.p.,260 % Control
same,% Control DOPAC,[5]; 10 mg/kg i.p.,145 % Control
same,% Control DOPAC,[5]; 20 mg/kg i.p.,220 % Control
same,% Control DOPAC,[5]; 40 mg/kg i.p.,300 % Control
same,Mean Climb Score,[6]; 10 mg/kg i.p. (head; text: orally),24
same,Mean Climb Score,[6]; 20 mg/kg i.p. (head; text: orally),15
same,Mean Climb Score,[6]; 40 mg/kg i.p. (head; text: orally),2
same,Mean Climb Score,[6]; 80 mg/kg i.p. (head; text: orally),0
same,antagonism of apomorphine-induced climbing,[6]; result in words,antagonized the climbing
same,Number of Monkeys with Dyskinetic Reactions/Number Tested,sensitized cebus monkeys [2]; 2.5 mg/kg p.o.,0/13
same,Number of Monkeys with Dyskinetic Reactions/Number Tested,sensitized cebus monkeys [2]; 5 mg/kg p.o.,1/13
same,duration of reaction,sensitized cebus monkeys [2]; 10 mg/kg,about twenty
same,intensity of reaction,sensitized cebus monkeys [2]; 10 mg/kg,weak
same,Number of Monkeys with Dyskinetic Reactions/Number Tested,sensitized cebus monkeys [2]; 10 mg/kg p.o.,1/13
same,Number of Monkeys with Dyskinetic Reactions/Number Tested,"sensitized cebus monkeys [2]; 20 mg/kg p.o., hydrochloride salt",2/13
same,Number of Monkeys with Dyskinetic Reactions/Number Tested,"sensitized cebus monkeys [2]; 20 mg/kg p.o., listed as compound of the present invention, hydrochloride salt",two of thirteen
same,duration of reaction,sensitized cebus monkeys [2]; [8],about five
same,intensity of reaction,sensitized cebus monkeys [2]; [8],extremely weak
same,Number of Monkeys with Dyskinetic Reactions/Number Tested,sensitized cebus monkeys [2]; 40 mg/kg p.o.,0/4
same,dyskinetic and dystonic reactions,"sensitized cebus monkeys [2]; compared to haloperidol or thioridazine, oral",markedly fewer dyskinetic and dystonic reactions
same,intensity of the reactions,"sensitized cebus monkeys [2]; compared to thioridazine or haloperidol, oral",less than that of thioridazine or haloperidol
same,Number of Monkeys Scoring 75% (Or Less) Avoidance Responses/Number Tested,squirrel monkeys; 5 mg/kg p.o.,0/4
same,Number of Monkeys Scoring 75% (Or Less) Avoidance Responses/Number Tested,squirrel monkeys; 10 mg/kg p.o.,15/20
same,Number of Monkeys Scoring 75% (Or Less) Avoidance Responses/Number Tested,squirrel monkeys; 20 mg/kg p.o.,19/20
same,reduction of avoidance responses,"squirrel monkeys; result in words, oral",marked reduction of avoidance responses
"OCCOCCN1CCN(C2=Nc3ccccc3Sc3ccccc32)CC1 [Formula II, 11-[4-[2-(2-Hydroxyethoxy)ethyl]-1-piperazinyl]-dibenzo[b,f][1,4]thiazepine]",overt toxicity,[7],No overt toxicity
"O=C(CCCN1CCC(O)(c2ccc(Cl)cc2)CC1)c1ccc(F)cc1 [Haloperidol, reference compound]",Number of Monkeys with Dyskinetic Reactions/Number Tested,sensitized cebus monkeys [2]; 1.0 mg/kg p.o.,13/13
same,duration of reactions,sensitized cebus monkeys [2]; oral,several
same,intensity of reactions,sensitized cebus monkeys [2]; oral,moderate or high intensity
"CSc1ccc2c(c1)N(CCC1CCCCN1C)c1ccccc1S2 (stereo not drawn) [Thioridazine, reference compound]",Number of Monkeys with Dyskinetic Reactions/Number Tested,sensitized cebus monkeys [2]; 10 mg/kg p.o.,11/13
same,duration of reactions,sensitized cebus monkeys [2]; oral,several
same,intensity of reactions,sensitized cebus monkeys [2]; oral,moderate or high intensity
